# Measured values published in patent US9765016B2, “S1P modulating agents” (BIOGEN MA INC., priority 2013, dated 2017).
# Biological target: T1, human S1P5 (Homo sapiens, UniProt Q9H228)
# T1 construct: host or cells: recombinant CHEM cells
# Assay: Calcium flux assay, antagonist assay format (S1P receptor activity assay)
# Assay type: cell-based
# Method: Agonist percentage activation determinations were obtained by assaying sample compounds and referencing the Emax control for each receptor profiled. Antagonist percentage inhibition determinations were obtained by assaying sample compounds and referencing the control EC80 wells for each receptor profiled.
# Sample compounds were plated in an eight-point, four-fold dilution series in duplicate with a top concentration of 10 μM. The concentrations described here reflect the final concentration of the compounds during the antagonist assay.
# Using the EC80 values determined during the agonist assay, stimulated all pre-incubated sample compound and reference antagonist (if applicable) wells with EC80 of reference agonist.
# T1 sequence (Q9H228 whole entry): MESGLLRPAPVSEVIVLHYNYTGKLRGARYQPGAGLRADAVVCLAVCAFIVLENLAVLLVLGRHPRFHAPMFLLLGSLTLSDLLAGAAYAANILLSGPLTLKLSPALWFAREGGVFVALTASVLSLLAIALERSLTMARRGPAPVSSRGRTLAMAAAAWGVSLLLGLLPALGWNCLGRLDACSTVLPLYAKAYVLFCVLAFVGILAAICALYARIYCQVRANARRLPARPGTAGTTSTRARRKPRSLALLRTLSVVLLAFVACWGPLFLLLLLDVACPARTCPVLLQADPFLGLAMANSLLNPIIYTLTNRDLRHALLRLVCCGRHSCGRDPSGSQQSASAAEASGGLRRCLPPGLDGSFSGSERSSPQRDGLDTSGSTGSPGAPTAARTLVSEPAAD
smiles,measurement,value
"Cc1cc(O[C@H]2CC[C@@H]([Si](C)(C)C)CC2)c(CN2CCC(C(=O)O)CC2)c2ccccc12 [Example 25, 1-((4-methyl-2-((cis-4-(trimethylsilyl)cyclohexyl)oxy)naphthalen-1-yl)methyl)piperidine-4-carboxylic acid]",IC50,≤ 0.1 µM
